This note sets out measurements from the supplement of paper PMC12137928.

In test [1] the test system is HCT116. Particulars: 72 h. The procedure, abridged: (§1)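 HCT116 cells went into 1536-well plates at 250 per well. CellTiter-Glo luminescence was expressed relative to vehicle (0%) and positive control (-100%) and then pattern-corrected. Both IC50 and maximal efficacy were taken from four-parameter Hill fits.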
Test [2] concerns HCT116. In words: efficacy (maximum % inhibition of viability vs DMSO); higher = more cytotoxic. To be noted: 72 h. The procedure, abridged: as §1

The structures appear in SMILES notation. Structures can show the parent of a compound that is named as a salt.

Regarding `CCOC(=O)C1=C(C)NC(C)=C(C(=O)OCC)C1c1ccccc1/C=C/C(=O)OC(C)(C)C` [Lacidipine], the values for the IC50 cell viability in test [1] (ICRF193 0 nM) and in test [1] (ICRF193 200 nM) were 18.3 µM and 20.6 µM, respectively. Moreover, the efficacy was 94% in test [2] (ICRF193 0 nM) and 108% in test [2] (ICRF193 200 nM).

Turning to `C[C@@H](NCCCc1cccc(C(F)(F)F)c1)c1cccc2ccccc12` [Cinacalcet hydrochloride], the IC50 cell viability in test [1] (ICRF193 0 nM) and in test [1] (ICRF193 200 nM) was 20.6 µM each time. The efficacy in test [2] (ICRF193 0 nM) was 87.6%; in test [2] (ICRF193 200 nM) it was 94.6%.

In the case of `[O-][n+]1ccccc1SSc1cccc[n+]1[O-]` [Dipyrithione], the IC50 cell viability in test [1] (ICRF193 0 nM) came to 1.42 µM; in test [1] (ICRF193 200 nM) it was 1.27 µM. Besides, the efficacy in test [2] (ICRF193 0 nM) was 83.9%; in test [2] (ICRF193 200 nM), 74.7%.

On to `O=C(CCCCCCC(=O)Nc1ccccc1)NO` [Vorinostat (SAHA)], for which the IC50 cell viability in test [1] (ICRF193 0 nM) came out at 3.66 µM; in test [1] (ICRF193 200 nM) it was 2.31 µM. In addition, the efficacy in test [2] (ICRF193 0 nM) amounted to 109%; in test [2] (ICRF193 200 nM), 101%.

`CN(C)CCCN1c2ccccc2CCc2ccccc21` [Imipramine]: the IC50 cell viability in test [1] (ICRF193 0 nM) is over 45.8 µM; in test [1] (ICRF193 200 nM), 13 µM. The same compound gave an efficacy in test [2] (ICRF193 200 nM) of 40.6%.

`C[C@H]1c2cccc(O)c2C(=O)C2=C(O)[C@]3(O)C(=O)C(C(N)=O)=C(O)[C@@H](N(C)C)[C@@H]3[C@@H](O)[C@@H]21` [Doxycycline]: the IC50 cell viability in test [1] (ICRF193 0 nM) came out at 16.4 µM; in test [1] (ICRF193 200 nM), 23.1 µM. Moreover, the values for the efficacy in test [2] (ICRF193 0 nM) and in test [2] (ICRF193 200 nM) were 41.6% and 62.7%, respectively.

On to `CC(C)C[C@H](NC(=O)CNC(=O)c1cc(Cl)ccc1Cl)B(O)O` [Ixazomib], for which the IC50 cell viability came to 0.0651 µM in test [1] (ICRF193 0 nM) and 0.058 µM in test [1] (ICRF193 200 nM). For the same compound, the results for the efficacy in test [2] (ICRF193 0 nM) and in test [2] (ICRF193 200 nM) were 92.8% and 92.6%, respectively.

As for `CN1CCC2=C(C1)c1ccccc1Cc1ccccc12` [Setiptiline], the figures for the IC50 cell viability in test [1] (ICRF193 0 nM) and in test [1] (ICRF193 200 nM) were 20.6 µM and over 45.8 µM, respectively. Besides, the efficacy in test [2] (ICRF193 0 nM) was 44.1%.

Consider `CC1(C)C(/C=C/C=C/C=C/C=C2\N(CCCCS(=O)(=O)O)c3ccc4ccccc4c3C2(C)C)=[N+](CCCCS(=O)(=O)[O-])c2ccc3ccccc3c21` [INDOCYANINE GREEN], for which the IC50 cell viability in test [1] (ICRF193 0 nM) was 29.1 µM; in test [1] (ICRF193 200 nM) it was over 45.8 µM. Moreover, the efficacy in test [2] (ICRF193 0 nM) came out at 43.6%.

As for `CO[C@H]1[C@@H](O)C[C@H](O[C@H]2[C@@H](O)C[C@H](O[C@H]3[C@@H](O)C[C@H](O[C@H]4CC[C@@]5(C)[C@H](CC[C@@H]6[C@@H]5C[C@@H](O)[C@]5(C)[C@@H](C7=CC(=O)OC7)CC[C@]65O)C4)O[C@@H]3C)O[C@@H]2C)O[C@@H]1C` [Methyldigoxin], the IC50 cell viability in test [1] (ICRF193 0 nM) stood at 0.0891 µM; in test [1] (ICRF193 200 nM), 0.1 µM. For the same compound, the efficacy in test [2] (ICRF193 0 nM) was 90.7%; in test [2] (ICRF193 200 nM) it was 86.6%.

In the case of `Cc1ccc2nc(N)[nH]c(=O)c2c1Sc1ccncc1` [NOLATREXED HCL], the figures for the IC50 cell viability in test [1] (ICRF193 0 nM) and in test [1] (ICRF193 200 nM) were over 45.8 µM and 20.6 µM, respectively. Further, the efficacy in test [2] (ICRF193 200 nM) turned out to be 45.1%.

Turning to `N[C@@H](CCC(=O)N[C@@H](CS)C(=O)NCC(=O)O)C(=O)O` [Glutathione], the figures for the IC50 cell viability in test [1] (ICRF193 0 nM) and in test [1] (ICRF193 200 nM) were over 45.8 µM and 3.18 µM, respectively. In test [2] (ICRF193 200 nM), this compound yielded an efficacy of 79.8%.

`Cc1nc(Nc2ncc(C(=O)Nc3c(C)cccc3Cl)s2)cc(N2CCN(CCO)CC2)n1` [Dasatinib]: the IC50 cell viability in test [1] (ICRF193 0 nM) was found to be 29.1 µM; in test [1] (ICRF193 200 nM), 23.1 µM. The efficacy worked out at 74.6% in test [2] (ICRF193 0 nM) and 105% in test [2] (ICRF193 200 nM).

Turning to `[O-][n+]1cccc(/C(Cl)=N/OC[C@H](O)CN2CCCCC2)c1` [Arimoclomol], the results for the IC50 cell viability in test [1] (ICRF193 0 nM) and in test [1] (ICRF193 200 nM) were over 45.8 µM and 0.651 µM, respectively. The compound further gave an efficacy in test [2] (ICRF193 200 nM) of 65.4%.

On to `COc1cc(NCc2ccc3nc(N)nc(N)c3c2C)cc(OC)c1OC` [Trimetrexate], for which the results for the IC50 cell viability in test [1] (ICRF193 0 nM) and in test [1] (ICRF193 200 nM) were 1.16 µM and 0.92 µM, respectively. Moreover, the values for the efficacy in test [2] (ICRF193 0 nM) and in test [2] (ICRF193 200 nM) were 102% and 90.7%, respectively.

With `CC[C@H]1OC(=O)[C@H](C)[C@@H](O[C@H]2C[C@@](C)(OC)[C@@H](O)[C@H](C)O2)[C@H](C)[C@@H](O[C@@H]2O[C@H](C)C[C@H](N(C)C)[C@H]2O)[C@](C)(O)C[C@@H](C)CN(C)[C@H](C)[C@@H](O)[C@]1(C)O` [Azithromycin], the IC50 cell viability is over 45.8 µM in test [1] (ICRF193 0 nM) and 20.6 µM in test [1] (ICRF193 200 nM). This compound displayed an efficacy in test [2] (ICRF193 200 nM) of 68.7%.

In the case of `C/C(=C\c1csc(C)n1)[C@@H]1C[C@@H]2O[C@]2(C)CCC[C@H](C)[C@H](O)[C@@H](C)C(=O)C(C)(C)[C@@H](O)CC(=O)O1` [Epothilone B], the values for the IC50 cell viability in test [1] (ICRF193 0 nM) and in test [1] (ICRF193 200 nM) were 0.00517 µM and 0.0073 µM, respectively. Besides, the efficacy was determined as 66% in test [2] (ICRF193 0 nM) and 45.8% in test [2] (ICRF193 200 nM).

In the case of `NC(=O)C1(N2CCCCC2)CCN(CCCN2c3ccccc3CCc3ccc(Cl)cc32)CC1` [Clocapramine], the IC50 cell viability in test [1] (ICRF193 0 nM) worked out at 23.1 µM; in test [1] (ICRF193 200 nM), 18.3 µM. Further, the efficacy in test [2] (ICRF193 0 nM) stood at 117%; in test [2] (ICRF193 200 nM), 105%.

As to `Cc1ccc(C(=O)c2cc(O)c(O)c([N+](=O)[O-])c2)cc1` [Tolcapone], the IC50 cell viability was over 45.8 µM in test [1] (ICRF193 0 nM) and 29.1 µM in test [1] (ICRF193 200 nM). Besides, the efficacy in test [2] (ICRF193 200 nM) came to 84.9%.
